Numbers after ± are expanded uncertainties.
Legend:
[1] = xn = mol fraction of the nth substance listed; conditions: 298 K, 101 kPa, Liquid; for speed of sound: Anton Paar DSA 48; for mass density: Vibrating tube method
[2] = refractive index (Na D-line) (dimensionless); xn = mol fraction of the nth substance listed; conditions: 298 K, 101 kPa, Liquid, ATAGO RX-1000

CCCCOC(C)(C)C [butane, 1-(1,1-dimethylethoxy)-] + CCO
Conditions	mass density, [1] [kg/m3]	refractive index, [2]	speed of sound, [1] [m/s]
x1 = 0.0493	782.41 ± 0.22	1.36389 ± 0.0001	1141 ± 1
x1 = 0.0589	781.92 ± 0.22	1.36463 ± 0.0001	1139 ± 1
x1 = 0.0797	780.9 ± 0.22	1.36652 ± 0.0001	1139 ± 1
x1 = 0.1006	779.92 ± 0.22	1.36783 ± 0.0001	1136 ± 1
x1 = 0.1555	777.57 ± 0.21	1.37143 ± 0.0001	1133 ± 1
x1 = 0.1947	776.05 ± 0.21	1.37365 ± 9e-05	1132 ± 1
x1 = 0.1978	775.98 ± 0.21	1.37382 ± 9e-05	1132 ± 1
x1 = 0.2528	773.99 ± 0.2	1.3765 ± 9e-05	1129 ± 1
x1 = 0.2923	772.71 ± 0.2	1.37818 ± 9e-05	1127 ± 1
x1 = 0.2967	772.6 ± 0.2	1.37834 ± 9e-05	1128 ± 1
x1 = 0.3512	770.96 ± 0.19	1.38037 ± 8e-05	1125 ± 1
x1 = 0.3966	769.83 ± 0.19	1.38183 ± 8e-05	1124 ± 1
x1 = 0.397	769.71 ± 0.19	1.38186 ± 8e-05	1124 ± 1
x1 = 0.4313	768.83 ± 0.18	1.38287 ± 8e-05	1123 ± 1
x1 = 0.4999	767.3 ± 0.18	1.38462 ± 7e-05	1122 ± 1
x1 = 0.5118	766.95 ± 0.17	1.38494 ± 7e-05	1121 ± 1
x1 = 0.559	765.94 ± 0.17	1.38599 ± 7e-05	1120 ± 1
x1 = 0.5953	765.3 ± 0.18	1.38674 ± 7e-05	1119 ± 1
x1 = 0.5964	765.18 ± 0.17	1.38674 ± 7e-05	1119 ± 1
x1 = 0.6627	763.92 ± 0.16	1.38795 ± 6e-05	1118 ± 1
x1 = 0.6853	763.6 ± 0.15	1.38828 ± 6e-05	1120 ± 1
x1 = 0.7044	763.16 ± 0.15	1.38862 ± 6e-05	1118 ± 1
x1 = 0.7441	762.45 ± 0.15	1.3892 ± 6e-05	1117 ± 1
x1 = 0.7814	761.8 ± 0.15	1.3897 ± 6e-05	1117 ± 1
x1 = 0.7853	761.72 ± 0.15	1.38986 ± 6e-05	1118 ± 1
x1 = 0.8493	760.58 ± 0.14	1.3905 ± 5e-05	1116 ± 1
x1 = 0.9072	759.5 ± 0.14	1.39106 ± 5e-05	1115 ± 1
x1 = 0.9404	758.85 ± 0.14	1.39132 ± 5e-05	1115 ± 1

CCCCOC(C)(C)C [butane, 1-(1,1-dimethylethoxy)-] + CO
Conditions	mass density, [1] [kg/m3]	refractive index, [2]	speed of sound, [1] [m/s]
x1 = 0.0406	783.42 ± 0.22	1.33673 ± 0.00011	1103 ± 1
x1 = 0.0518	782.76 ± 0.22	1.33916 ± 0.00011	1104 ± 1
x1 = 0.0974	780.08 ± 0.22	1.34774 ± 0.0001	1103 ± 1
x1 = 0.0984	779.91 ± 0.22	1.34786 ± 0.0001	1104 ± 1
x1 = 0.1493	777.55 ± 0.21	1.35545 ± 0.0001	1105 ± 1
x1 = 0.198	775.42 ± 0.21	1.36125 ± 0.0001	1107 ± 1
x1 = 0.2051	775.26 ± 0.21	1.36198 ± 0.0001	1107 ± 1
x1 = 0.2448	773.83 ± 0.2	1.3658 ± 9e-05	1108 ± 1
x1 = 0.2974	772.2 ± 0.2	1.37001 ± 9e-05	1109 ± 1
x1 = 0.3373	770.98 ± 0.19	1.37281 ± 9e-05	1109 ± 1
x1 = 0.3581	770.41 ± 0.19	1.37411 ± 8e-05	1109 ± 1
x1 = 0.3783	769.88 ± 0.19	1.37529 ± 8e-05	1109 ± 1
x1 = 0.3922	769.7 ± 0.19	1.37605 ± 8e-05	1111 ± 1
x1 = 0.4633	767.85 ± 0.18	1.37952 ± 8e-05	1111 ± 1
x1 = 0.4954	767.15 ± 0.18	1.38087 ± 7e-05	1113 ± 1
x1 = 0.5003	767.05 ± 0.18	1.38106 ± 7e-05	1111 ± 1
x1 = 0.5598	765.86 ± 0.17	1.38325 ± 7e-05	1112 ± 1
x1 = 0.5955	765.21 ± 0.16	1.3845 ± 7e-05	1114 ± 1
x1 = 0.6138	764.85 ± 0.16	1.38496 ± 7e-05	1113 ± 1
x1 = 0.6463	764.27 ± 0.16	1.38588 ± 6e-05	1113 ± 1
x1 = 0.6737	763.79 ± 0.16	1.3866 ± 6e-05	1114 ± 1
x1 = 0.6923	763.48 ± 0.15	1.38706 ± 6e-05	1114 ± 1
x1 = 0.721	762.99 ± 0.15	1.38773 ± 6e-05	1114 ± 1
x1 = 0.7904	761.8 ± 0.14	1.38914 ± 6e-05	1114 ± 1
x1 = 0.7934	761.75 ± 0.14	1.38918 ± 6e-05	1114 ± 1
x1 = 0.8479	760.78 ± 0.14	1.3901 ± 5e-05	1114 ± 1
x1 = 0.8631	760.5 ± 0.14	1.39032 ± 5e-05	1114 ± 1
x1 = 0.8964	759.86 ± 0.14	1.3907 ± 5e-05	1115 ± 1
x1 = 0.9255	759.26 ± 0.14	1.39109 ± 5e-05	1114 ± 1
